Results: ChEMBL document CHEMBL1201862, “PubChem BioAssay data set” (2004)
Values joined by “and” are separate entries in the source; they are usually repeats but may differ in a detail not shown here. Equal entries are not always repeated.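 Briefly, cells in 96-well plates were exposed to five compound concentrations for 48 h, and endpoints were estimated by linear interpolation. GI50 = concentration required for 50% inhibition of growth.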 Active and inactive are the calls of the source. No stated cut-off is given here; in the data, active = GI50 up to about 1.1 µM and inactive = higher.

Legend:
Experiment in all cases: growth of human tumour cells (NCI), 48 h
SNB-19 = tested on: SNB-19
HOP-62 = tested on: HOP-62
MCF7 = tested on: MCF7
NCI-H23 = tested on: NCI-H23
Malme-3M = tested on: Malme-3M
MDA-MB-435 = tested on: MDA-MB-435
786-0 = tested on: 786-0
LOX IMVI = tested on: LOX IMVI
NCI-H522 = tested on: NCI-H522
SK-MEL-2 = tested on: SK-MEL-2
SW-620 = tested on: SW-620
OVCAR-3 = tested on: OVCAR-3
IGROV-1 = tested on: IGROV-1
PC-3 = tested on: PC-3
KM12 = tested on: KM12
HT-29 = tested on: HT-29
T47D = tested on: T47D
SK-OV-3 = tested on: SK-OV-3
DU-145 = tested on: DU-145

SMILES	GI50 (SNB-19)	GI50 (HOP-62)	GI50 (MCF7)	GI50 (NCI-H23)	GI50 (Malme-3M)	GI50 (MDA-MB-435)	GI50 (786-0)	GI50 (LOX IMVI)	GI50 (NCI-H522)	GI50 (SK-MEL-2)	GI50 (SW-620)	GI50 (OVCAR-3)	GI50 (IGROV-1)	GI50 (PC-3)	GI50 (KM12)	GI50 (HT-29)	GI50 (T47D)	GI50 (SK-OV-3)	GI50 (DU-145)
Cn1c(=O)c2nc(CCCCc3nc4c(=O)n(C)c(=S)n(C)c4[nH]3)[nH]c2n(C)c1=S	76.6 µM (inactive)	38.9 µM (inactive)	> 100 µM (inactive)	> 100 µM (inactive)	> 100 µM (inactive)	> 100 µM (inactive)	> 100 µM (inactive)	> 100 µM (inactive)	> 100 µM (inactive)	> 100 µM (inactive)	> 100 µM (inactive)	> 100 µM (inactive)	> 100 µM (inactive)	> 100 µM (inactive)	> 100 µM (inactive)	> 100 µM (inactive)	> 100 µM (inactive)	45.2 µM (inactive)	> 100 µM (inactive)
Cc1ccc(S(=O)(=O)NCc2cccc([N+](=O)[O-])c2)cc1	> 100 µM (inactive)	> 100 µM (inactive)	> 100 µM (inactive)	> 100 µM (inactive)	> 100 µM (inactive)	> 100 µM (inactive)	> 100 µM (inactive)	> 100 µM (inactive)	64.6 µM (inactive)	> 100 µM (inactive)	> 100 µM (inactive)	72.8 µM (inactive)	> 100 µM (inactive)	> 100 µM (inactive)	> 100 µM (inactive)	> 100 µM (inactive)	> 100 µM (inactive)	> 100 µM (inactive)	> 100 µM (inactive)
CC1OC(OC2C(OC(=O)[C@]34CCC(C)(C)C[C@H]3C3=CC[C@@H]5[C@@]6(C)CC[C@H](OC7OC(C(=O)O)C(O)C(O)C7O)C(C)(C)[C@@H]6CC[C@@]5(C)[C@]3(C)C[C@H]4O)OCC(O)C2O)C(O)C(O)C1OC1OCC(O)C(O)C1O (some centres undefined)	12.6 µM (inactive) and 8.09 µM (inactive)	17.7 µM (inactive) and 14.4 µM (inactive)		5.31 µM (inactive) and 6.5 µM (inactive)	14.2 µM (inactive) and 12 µM (inactive)		14.8 µM (inactive) and 12.6 µM (inactive)	15.5 µM (inactive) and 10.7 µM (inactive)	10.2 µM (inactive) and 6.21 µM (inactive)		13 µM (inactive) and 16.3 µM (inactive)	15.3 µM (inactive) and 17.7 µM (inactive)	15.2 µM (inactive) and 13 µM (inactive)			7.62 µM (inactive) and 5.18 µM (inactive)	22.2 µM (inactive) and 11.3 µM (inactive)	16.8 µM (inactive) and 18.9 µM (inactive)	15.3 µM (inactive) and 13.9 µM (inactive)
C[n+]1c2ccccc2n2c3ccccc3c(NCCc3ccccn3)c(C#N)c21	3.33 µM (inactive)	2.11 µM (inactive)	0.249 µM (active)	2.56 µM (inactive)	2.81 µM (inactive)	1.47 µM (inactive)	1.58 µM (inactive)	1.17 µM (inactive)	0.828 µM (active)	2.61 µM (inactive)	0.661 µM (active)	2.34 µM (inactive)		2.55 µM (inactive)	2.47 µM (inactive)	2.99 µM (inactive)	2.36 µM (inactive)	3.4 µM (inactive)	2.72 µM (inactive)
COc1ccc2c(c1)O[C@@H]1C(O)Oc3cc(OC)c(OC)cc3[C@]1(O)C2=O (some centres undefined)	> 100 µM (inactive)	> 100 µM (inactive)	55.1 µM (inactive)	3.44 µM (inactive)		50.8 µM (inactive)	> 100 µM (inactive)	29.9 µM (inactive)	5.33 µM (inactive)	> 100 µM (inactive)	88.7 µM (inactive)	> 100 µM (inactive)	> 100 µM (inactive)	59.6 µM (inactive)	79.3 µM (inactive)	89.9 µM (inactive)	31.2 µM (inactive)	> 100 µM (inactive)	> 100 µM (inactive)
COc1cc2c(/C=C3/C(=O)Nc4ccc(O)cc43)c(Cl)n(Cc3ccccc3)c2cc1C	0.596 µM (active)		1.18 µM (inactive)	0.618 µM (active)	0.24 µM (active)	0.078 µM (active)	0.222 µM (active)	0.558 µM (active)	1.22 µM (inactive)	3.73 µM (inactive)	0.433 µM (active)	0.234 µM (active)	0.682 µM (active)	0.897 µM (active)	0.265 µM (active)	0.75 µM (active)	4.93 µM (inactive)	0.817 µM (active)	1.16 µM (inactive)
COC(=O)C(Cc1ccccc1)NP(=O)(O)OCC1OC(n2cc(I)c(=O)[nH]c2=O)CC1O (centres undefined)	> 100 µM (inactive)	> 100 µM (inactive)	> 100 µM (inactive)	> 100 µM (inactive)	> 100 µM (inactive)	> 100 µM (inactive)	> 100 µM (inactive)	> 100 µM (inactive)	> 100 µM (inactive)		> 100 µM (inactive)	> 100 µM (inactive)	> 100 µM (inactive)	> 100 µM (inactive)	> 100 µM (inactive)	> 100 µM (inactive)	> 100 µM (inactive)	> 100 µM (inactive)	> 100 µM (inactive)
